# Legend:
# [1] = tested on: R2 (null) (CHO); assay: proliferation assay, R2 transporter-null CHO cells; type: cell-based, Chinese hamster; details: Cricetulus griseus, folate-/glycine-free RPMI1640 with 25 nM leucovorin, 96 h, drug 0-1000 nM, read-out: IC50s (SE) R2 (null) (CHO)
# Procedure: Proliferation assays were performed with engineered Chinese hamster ovary (CHO) cell lines R2 (transporter-null), PC43-10 (expresses RFC only), RT16 (FRα only), and R2/PCFT4 (PCFT only) cultured in folate-/glycine-free RPMI1640 supplemented with 25 nM leucovorin. Additional results are shown for HCT116 (colon tumor cells (CTC)), IGROV1 (epithelial ovarian cancer (EOC) cells), H460 (non-small cell lung cancer (NSCLC) cells), MIAPaCa-2 (pancreatic cancer (PaC) cells), and HPAC (PaC).
# Cell culture and proliferation/protection assays. […]
# For proliferation assays with the CHO cell lines, the cells were treated with drugs (0-1 µM) in a 96-well plate (2000 cells/well) in glycine-free, nucleoside-free folate-free RPMI supplemented with 10% dialyzed fetal bovine serum, 1% penicillin/streptomycin, 2 mM L-glutamine, and 25 nM leucovorin (final volume 200 µL) over a 96 h incubation period at 37° C. with 5% CO2. […] To quantify viable cells, the media was removed and plates were washed once with 100 µL Dulbecco’s Phosphate-Buffered Saline (PBS), after which 100 µL PBS and 20 µL Cell Titer-blue (Promega) were added. Relative cell numbers were proportional to the fluorescence measured with a fluorescence plate reader (590 nm emission, 560 nm excitation). […]
# [2] = tested on: R2/PCFT4 (CHO); assay: proliferation assay, R2/PCFT4 CHO cells expressing PCFT only; type: cell-based, Chinese hamster; details: Cricetulus griseus, folate-/glycine-free RPMI1640 with 25 nM leucovorin, 96 h, drug 0-1000 nM, read-out: IC50s (SE) R2/PCFT4 (CHO)
# Description: Cell culture and proliferation/protection assays. […] Cell lines were verified by STR analysis by Genetica DNA Laboratories (Burlington, NC). MTXRIIOua^R2-4 (i.e. R2) Chinese hamster ovary (CHO) cells were generously provided by Dr. Wayne Flintoff (University of Western Ontario) (54). […]
# [3] = molecular target: AICARFTase (Homo sapiens, UniProt P31939); assay: in vitro inhibition of purified AICARFTase (ATIC)
# Sequence of AICARFTase (P31939 whole entry): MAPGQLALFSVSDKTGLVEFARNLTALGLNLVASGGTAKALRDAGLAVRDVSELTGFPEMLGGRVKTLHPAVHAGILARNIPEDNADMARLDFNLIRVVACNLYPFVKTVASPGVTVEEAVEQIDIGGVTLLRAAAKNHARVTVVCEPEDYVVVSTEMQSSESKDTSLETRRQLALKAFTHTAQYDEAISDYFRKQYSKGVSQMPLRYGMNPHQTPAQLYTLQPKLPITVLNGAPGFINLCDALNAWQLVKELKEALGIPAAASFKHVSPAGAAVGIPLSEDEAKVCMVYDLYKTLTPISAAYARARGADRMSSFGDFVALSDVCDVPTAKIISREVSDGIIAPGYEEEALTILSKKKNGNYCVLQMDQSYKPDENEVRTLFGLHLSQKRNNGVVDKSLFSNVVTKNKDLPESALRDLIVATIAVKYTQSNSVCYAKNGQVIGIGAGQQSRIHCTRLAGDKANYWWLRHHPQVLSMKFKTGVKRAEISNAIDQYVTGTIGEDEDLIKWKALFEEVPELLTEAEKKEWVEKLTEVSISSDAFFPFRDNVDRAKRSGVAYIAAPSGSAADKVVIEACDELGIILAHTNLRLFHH
smiles,measurement,setting,value
Nc1nc2ccn(CCCc3ccc(C(=O)N[C@@H](CCC(=O)O)C(=O)O)cc3)c2c(=O)[nH]1 [AGF291],IC50,[1],> 1000 nM
same,IC50,[2],282 nM
same,Ki,[3],10900 ± 6070 nM

# Reference: patent US20230091810A1, “FIRST-IN-CLASS OF SHMT2 AND MTHFD2 INHIBITORS AS ANTITUMOR AGENTS” (Duquesne University of the Holy Spirit, priority 2017, published 2023)
